Drawing on ChEMBL document CHEMBL1149494, “Synthesis and structure-activity relationships of retro bis-aminopyrrolidine urea (rAPU) derived small-molecule antagonists of the melanin-concentrating hormone receptor-1 (MCH-R1). Part 2” (Bioorg Med Chem Lett, 2006), this text covers Drug uptake and Kp for four compounds.

What all share (type): ADME, organism-based
The species named for data set [1] is Rattus norvegicus. Put plainly: Drug level in rat plasma. The note with it: in vivo.
Data set [2] is filed under the species Rattus norvegicus. Put plainly: Drug level in rat brain. The note with it: in vivo.
A short description of data set [3]: Ratio of drug level in rat brain against plasma. The note with it: brain and plasma, read-out: BPR.

For `CCc1ccc(-c2ccc(C(=O)N(C)[C@H]3CCN(C(=O)N4CC[C@@H](N(C)C5CCOCC5)C4)C3)s2)cc1`, the results for the Drug uptake in data set [1] and in data set [2] were 6.7 ng/g and 21.8 ng/g, respectively. Also, in data set [3], the Kp worked out at 3.4.
For `CCc1ccc(-c2ccc(C(=O)N(C)[C@H]3CCN(C(=O)N4CC[C@@H](N5CCCCC5)C4)C3)cc2)cc1` the same measures were 6.2 ng/g, 38.3 ng/g and 6.5.
As for `CCc1ccc(-c2ccc(C(=O)N(C)[C@H]3CCN(C(=O)N4CC[C@@H](NC5CCOCC5)C4)C3)cc2)cc1`, the figures for the Drug uptake in data set [1] and in data set [2] were 14.5 ng/g and 5.1 ng/g, respectively. Further, the Kp in data set [3] turned out to be 0.4.
On to `CCc1ccc(-c2ccc(C(=O)N(C)[C@H]3CCN(C(=O)N4CC[C@@H](NC5CCOCC5)C4)C3)s2)cc1`, for which the Drug uptake in data set [1] turned out to be 30.5 ng/g; in data set [2], 17.3 ng/g. Further, the Kp in data set [3] was 0.6.
